For series [1] the following is noted: comparison species; cited from earlier work.
For series [2] the following is noted: comparison systems; cited from earlier work.
The nature of series [3]: Standard electrochemical potential from CV experiments. The class given is physicochemical. On the procedure: (§1) Rotating Disk Electrode (RDE) techniques were performed using a mirror polished glassy 5 mm diameter carbon disk electrode (Pine Instruments, AFE6R1 AU) equipped within a rotator (AFMSRCE). Electrochemical tests were performed using a potentiostat (Autolab, model PGSTAT20) and a three-compartment electrochemical glass cell which employed a Pt wire counter electrode. A saturated calomel reference electrode (SCE, E°=0.244 V vs. SHE at 25° C.) was used as the reference electrode, which was ionically connected to the main compartment of the electrochemical glass cell via a Luggin capillary.
(§2) The rotation rates were from 500 rpm to 3000 rpm. CV scan rates were from 10 mV s^−1 to 200 mV s^−1. LSV scan rate was 5 mV s^−1.

Series [4] in a line: Rotating disk electrode LSV, Levich, Koutecký-Levich and Tafel analysis, 1 mM BQDS in 1 M H2SO4. The class given is physicochemical. On the procedure:
as §1, §2

The nature of series [5]: Cyclic voltammogram of 1 mM BQ in 1 M H2SO4. Type of series: physicochemical. Particulars: 1 mM in 1 M sulphuric acid, scan rate 50 mV s^−1, glassy carbon electrode. The text has this: The working electrode was a glassy carbon electrode and the counter electrode was a platinum wire.
A short description of series [6]: Rotating disk electrode measurements (Levich equation), Example 6. The class given is physicochemical. Particulars: 1 mM, kinematic viscosity 0.01 cm^2 s^−1. The procedure: The hydroquinone concentration was 1 mM and the kinematic viscosity of the solution was 0.01 cm^2 s^−1. Using the Levich equation, the diffusion coefficient of benzoquinone was calculated to be 1.5707×10^−7 cm^2 s^−1.

The conditions of series [7]: comparison systems; cited from earlier work. This is another data set of the same source.

In brackets after ≈: the same amount, converted by molar mass. Where two headings read alike, the source gives them in different places.

`CC1(C)CCCC(C)(C)N1[O]` [TEMPO]: in series [1], the charge transfer coefficient is recorded as 0.68 and the diffusion coefficient is reported as 7.00×10^−8 cm^2 s^−1. The electrochemical potential in series [2] is recorded as 0.90 V vs SHE.
`O=S(=O)([O-])c1cc(O)c(O)c(S(=O)(=O)[O-])c1.[Na+].[Na+]` [BQDS, 4,5-Dihydroxy-1,3-benzenedisulfonic acid disodium salt monohydrate]: in series [3], the standard electrochemical potential turned out to be 0.86 V vs SHE. The diffusion coefficient in series [4] (determined from LSV, 1 mM in 1 M H2SO4) is listed as 5.15×10^−6 cm^2 s^−1. The molecule further gave a charge transfer coefficient in series [4] (from Koutecký-Levich plots and Tafel plot) of 0.34.
Regarding `O=C1C=C(S(=O)(=O)O)C=C(S(=O)(=O)O)C1=O` [BQ], in series [5], the oxidation peak was 1 V vs MSE and the reduction peak was 0.7 V vs MSE. Besides, the diffusion coefficient in series [6] is 1.5707×10^−7 cm^2 s^−1.
Take `C[N+](C)(C)C[c-]1cccc1.[Cl-].[Fe+2].c1cc[cH-]c1` [Fe-NCL, (ferrocenylmethyl)trimethylammonium chloride]: the diffusion coefficient in series [1] is recorded as 3.74×10^−6 cm^2 s^−1. For the same molecule, in series [7], the solubility (commonly the concentration that dissolves in the medium under given conditions) was 4000 mM. Besides, the electrochemical potential in series [2] was 0.67 V vs SHE.
For the molecule `Oc1ccc(O)cc1` [hydroquinone], in series [1], the charge transfer coefficient is on record as 0.51 and the diffusion coefficient is recorded as 5.03×10^−6 cm^2 s^−1. For the same molecule, the solubility in series [7] was 500 mM (≈ 55.1 mg/mL). Besides, in series [2], the electrochemical potential result is reported as “identical potential as Fe-NCL”.
